In brackets after ≈: the same amount, converted by molar mass.
Tests used:
[1] = Cytotoxicity against human MEL28 cells; format: functional, cell-based; details: SK-MEL-28
P388 = experiment: Cytotoxicity against mouse P388 cells; format: functional, cell-based
HT-29 = experiment: Cytotoxicity against human HT-29 cells; format: functional, cell-based
A549 = experiment: Cytotoxicity against human A549 cells; format: functional, cell-based
Tubulin = experiment: Inhibition of tubulin polymerization (unknown origin) pretreated for 15 mins followed by GTP addition by spectrophotometric method; format: protein-complex assay, Homo sapiens

SMILES	IC50 [1]	IC50 (P388)	IC50 (HT-29)	IC50 (A549)	IC50 (Tubulin)
C=C1C[C@@H]2C/C=C/C(=O)C/C(C)=C\C=C\C(=O)O[C@H]([C@H](O)NC(=O)/C=C\C=C\C)C/C(C)=C/[C@H](C1)O2 [ZAMPANOLIDE]	1 to 5 ng/mL (≈ 2.02 to 10.1 nM)	1 to 5 ng/mL (≈ 2.02 to 10.1 nM)	1 to 5 ng/mL (≈ 2.02 to 10.1 nM)	1 to 5 ng/mL (≈ 2.02 to 10.1 nM)	
COC1=CC(=O)N(C(=O)[C@@H](OC(=O)[C@@H]2CCCN2C(=O)[C@@H]2CCCN2C(=O)[C@H](C(C)C)N(C)C(=O)[C@@H](NC(=O)[C@H](C(C)C)N(C)C)C(C)C)C(C)C)[C@H]1Cc1ccccc1 [DOLASTATIN 15]					23 µM
CC[C@H](C)[C@@H]([C@@H](CC(=O)N1CCC[C@H]1[C@H](OC)[C@@H](C)C(=O)N[C@@H](Cc1ccccc1)c1nccs1)OC)N(C)C(=O)[C@@H](NC(=O)[C@H](C(C)C)N(C)C)C(C)C [DOLASTATIN-10]					1.2 µM

— ChEMBL document CHEMBL4251663, “Marine Invertebrate Natural Products that Target Microtubules” (J Nat Prod, 2018)
